Test results published in US20250295639A1, “METHODS FOR TREATING HEART DISEASES” (Cytokinetics, Incorporated, priority 2024, published 2025).

Experiments:
[1] = system: patients with symptomatic oHCM; assay: SEQUOIA-HCM: eligibility for septal reduction therapy (SRT); assay type: in vivo, human; details: aficamten (32 eligible at entry)
From the text: Eligibility for Septal Reduction Therapy (SRT). At study entry, 61 (22%) patients with oHCM were eligible for SRT based on guideline criteria (LV outflow gradient ≥50 mmHg at rest or Valsalva and NYHA class III or IV), of which 32 (23%) were assigned to aficamten and 29 (20%) to placebo. By week 12, 32 (100%) patients treated with aficamten were no longer guideline-eligible for SRT vs. 7 (24%) patients treated with placebo (P<0.001). At week 24, 28 (88%) patients treated with aficamten were no longer guideline-eligible for SRT vs. 15 (52%) on placebo (P<0.002).

[2] = system: patients with symptomatic oHCM; assay: SEQUOIA-HCM: EQ-5D-5L index and Visual Analogue Scale quality of life; assay type: in vivo, human
From the text: A further exploratory objective of this trial was to evaluate the effect of aficamten on health status and health-related quality of life as measured by PRO questionnaire, as determine by changes from baseline to Week 24 in individual responses to the EuroQol 5-dimension 5-level instrument (EQ-5D-5L). Improved exercise capacity, disease-specific quality-of-life (QoL), and hemodynamics in patients with obstructive hypertrophic cardiomyopathy (oHCM). Participants underwent blinded dose escalation over 6 weeks and were treated for 24 weeks followed by 4-week washout. EQ-5D-5L index (ranges from 0 to 1) and the Visual Analogue Scale (VAS; from 0 to 100) was measured at baseline and weeks 0, 2, 4, 8, 12, 16, 20, 24, with higher scores indicating better QoL. Aficamten treatment effect on EQ-5D-5L was estimated using linear regression (specific study visits) and mixed effects regression (overall treatment effect) using all follow-up data through week 24, with model adjustments for baseline EQ-5D-5L score and randomization stratification variables.

[3] = overall treatment effect through week 24

## CCc1nc(-c2ccc3c(c2)CC[C@H]3NC(=O)c2cnn(C)c2)no1 [aficamten, (R)—N-(5-(5-ethyl-1,2,4-oxadiazol-3-yl)-2,3-dihydro-1H-inden-1-yl)-1-methyl-1H-pyrazole-4-carboxamide]
[1]; week 12
  SRT-eligible patients no longer guideline-eligible for SRT: 100%
[1]; week 24
  SRT-eligible patients no longer guideline-eligible for SRT: 88%
[2]; Index and VAS
  QoL after treatment withdrawal at 24 weeks compared with placebo: worsened
[2]; [3]
  improvement of EQ-5D-5L VAS versus placebo: 2.8 points
  improvement of EQ-5D-5L index versus placebo: 0.026
